According to patent publication EP1360961A1, “Use of antimicrobial peptides for potentiating the activity of antimicrobial agents” (AM-Pharma B.V., priority 2002, dated 2003):

How the values were obtained:
[1] = tested on: fluconazole-resistant C. albicans; assay: In vitro assay for candidacidal activity of hLF-derived peptides and/or fluconazole (co-incubation, CFU count); type: cell-based; conditions: 1×10^6 CFU/ml, 2 h at 37°C; noncandidacidal peptide concentrations; fluconazole 100-200 µg/ml; Fig. 1
Protocol: • Figure 1 - Candidacidal activity of combinations of noncandidacidal concentrations of hLF(1-11), an N-terminal peptide of human lactoferrin and 200 µg/ml fluconazole (closed bars), 150 µg/ml fluconazole (black dotted bars), 100 µg/ml fluconazole (white dotted bars) or without this triazole (open bars). […] In short, 1×10^6 CFU fluconazole-resistant C. albicans/ml were incubated with combinations of hLF(1-11) and fluconazole for 2 h at 37°C and then the number of surviving Candida was determined microbiologically. […] In short, 1×10^6 CFU Candida/ml were preincubated for 5 min at 37°C with (8 µM) hLF(1-11) or (200 µg/ml) fluconazole, washed and then incubated for 2 h at 37°C with (200 µg/ml) fluconazole or (8 µM) hLF(1-11), respectively. As controls, Candida cells were incubated for 2 h at 37°C with (8 µM) hLF(1-11), (200 µg/ml) fluconazole, the combination of (8 µM) hLF(1-11) and (200 µg/ml) fluconazole or no agent. Results are means plus SD of at least three independent experiments.
Assay for candidacidal activity of hLF-derived peptides and fluconazole. […] After a 2 h incubation at 37°C with hLF peptides and/or fluconazole the number of viable blastoconidia was determined by plating serial dilutions of each sample on Sabouraud agar. Results are expressed as colony forming units (CFU) per ml.

[2] = tested on: Fluconazole-resistant C. albicans strain Y01-19; assay: E-test for fluconazole resistance; type: cell-based; conditions: Candida albicans
Protocol: Fluconazole. Fluconazole (Pfizer Inc. New York, NY) was dissolved at a concentration of 1 mg/ml of dimethylsulfoxide (Fluka Chemie GmbH, Sigma-Aldrich Chemie BV, Zwijndrecht, The Netherlands) and stored at -20°C until use. From this stock solution appropriate concentrations were prepared in 10 mM of sodium phosphate buffer (pH 7.4), further referred to as NaPB. Source of C. albicans strain. Fluconazole-resistant C. albicans strain Y01-19 was purchased from Pfizer (Groton, Conn.). […] Fluconazole resistance (M.I.C.>256 µg/ml) was evaluated using the E-test (Oxoid Unipath Ltd., Basingstoke, UK). Yeasts were cultured overnight in Sabouraud broth (Oxoid) at 37°C and sub-cultured for 2,5 h on a rotary wheel at 37°C.

`OC(Cn1cncn1)(Cn1cncn1)c1ccc(F)cc1F` [Fluconazole] was tested, and the candidacidal activity [1] was “without effect” and the MIC [2] was greater than 256 µg/mL.
